Measurements taken from patent US20260250320A1, “LIPIDATED PEPTIDE INHIBITORS OF INTERLEUKIN-23 RECEPTOR” (Janssen Pharmaceutica NV, priority 2023, published 2026).
*1 amine or outer side, *2 acyl side, *3 side chain or, on linkers, in order; H or OH if unused. Where a SMILES comes first, the peptide text is derived from it. Bridges are numbered along the chain shown (N, C = ends). Side-chain parts run from the residue outwards. [ ]: non-standard residue; d: D form. The star is where a group is joined. X9 = O=C(O)CCCCCCCCCCCCCCCCC(=O)N[C@@H](CCC(=O)NCCOCCOCCOCCOCCOCCOCCOCCOCCOCCOCCOCCCCCC(=O)*)C(=O)O; X5 = O=C(O)CCCCCCCCCCCCCCCCC(=O)N[C@@H](CCC(=O)NC(=O)*)C(=O)O; Me3N+(CH2)2O(CH2)2O(CH2)2CO = C[N+](C)(C)CCOCCOCCC(=O)*; NH(CH2CH2O)2CH2CH2NMe3+ = C[N+](C)(C)CCOCCOCCN*; Trp(7-Me) = Cc1cccc2c(C[C@H](N)C(=O)O)c[nH]c12; C18 diacid = O=C(O)CCCCCCCCCCCCCCCCC(=O)*; γGlu = O=C(O)[C@H](CCC(=O)[*:2])N[*:1]; 2Nal = N[C@@H](Cc1ccc2ccccc2c1)C(=O)O; AEF = NCCOc1ccc(C[C@H](N)C(=O)O)cc1; X2 = C[N+](C)(C)C[C@@H](CC(=O)O)N*; 2Pal = N[C@@H](Cc1ccccn1)C(=O)O; 3Pal = N[C@@H](Cc1cccnc1)C(=O)O; Lys(Me) = CNCCCC[C@H](N)C(=O)O; Pen = CC(C)(S)[C@H](N)C(=O)O; Suc = O=C(CCC(=O)[*:2])[*:1]; Thp = NC1(C(=O)O)CCOCC1; X1 = C[N+](C)(C)CCCCC*; AEEA = NCCOCCOCC(=O)O; Sar = CNCC(=O)O

What was measured:
[1] = test system: IL-23-stimulated phosphorylated STAT3 in peripheral blood mononuclear cells (PBMCs); experiment: PBMC pSTAT3 Assay; format: cell-based; conditions: PBMCs from healthy donors; 30 min preincubation with peptide; IL-23 5 ng/mL for 30 min; phospho-STAT3 by MSD
How it was run: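 Phospho-STAT3 quantified by Meso Scale assay in lysates of PBMCs exposed to IL-23 (5 ng/mL, 30 min, 37 °C) after 30 min peptide pretreatment. Cells were cryopreserved donor PBMCs activated 4 days with anti-CD3 plus IL-1β (100 ng/mL) and starved ~4 h; IC50 reported.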

IL-23R = biological target: T1, IL-23R (Homo sapiens, UniProt Q5VWK5); experiment: IL23R Reporter Assay; format: cell-based; conditions: HEK293 cells containing IL-23R, IL-12Rβ1 and STAT-inducible firefly luciferase reporter; 10 ng/mL IL-23 (EC90); 5 h
T1 construct: HEK293 cells containing IL-23R, IL-12Rβ1 and a firefly luciferase reporter gene driven by a STAT-inducible promoter (Promega); host or cells: HEK293
T1 sequence (Q5VWK5 24-629): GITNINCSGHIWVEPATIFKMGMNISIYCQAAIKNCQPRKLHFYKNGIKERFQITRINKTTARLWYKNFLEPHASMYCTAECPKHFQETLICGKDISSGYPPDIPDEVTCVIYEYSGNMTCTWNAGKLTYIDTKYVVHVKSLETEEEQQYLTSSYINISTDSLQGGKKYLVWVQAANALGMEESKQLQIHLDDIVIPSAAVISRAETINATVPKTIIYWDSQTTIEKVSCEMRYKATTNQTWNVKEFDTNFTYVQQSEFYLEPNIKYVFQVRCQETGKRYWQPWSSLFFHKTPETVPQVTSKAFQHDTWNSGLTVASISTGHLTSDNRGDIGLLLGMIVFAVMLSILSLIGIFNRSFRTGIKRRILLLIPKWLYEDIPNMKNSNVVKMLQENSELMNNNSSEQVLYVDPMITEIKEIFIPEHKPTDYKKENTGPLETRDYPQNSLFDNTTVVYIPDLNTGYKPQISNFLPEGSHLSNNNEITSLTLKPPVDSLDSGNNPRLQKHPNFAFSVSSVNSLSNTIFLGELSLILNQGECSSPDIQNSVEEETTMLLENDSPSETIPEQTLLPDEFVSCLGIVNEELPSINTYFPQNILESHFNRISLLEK
How it was run: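 IC50 values were fitted with a 4-parameter Hill equation to luciferase signal, scaled between IL-23-only wells (0% inhibition) and 30 μM reference inhibitor (100%). The readout was a STAT-inducible reporter in IL-23R/IL-12Rβ1 HEK293 cells, stimulated with added 10 ng/mL IL-23 (EC90) for 5 h at 37° C and developed with BioGlo.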

SMILES | IC50 (IL-23R) | IC50 [1]
CC(=O)NCCCC[C@@H]1NC(=O)[C@H](Cc2c[nH]c3c(C)cccc23)NC(=O)[C@H]([C@@H](C)O)NC(=O)[C@H](CC(N)=O)NC(=O)[C@@H](NC(=O)[C@@H](CCCNC(=N)N)NC(=O)CCC(=O)N[C@H](CC(=O)O)C[N+](C)(C)C)C(C)(C)SSC(C)(C)[C@@H](C(=O)N[C@@H](Cc2ccc(OCCNC(=O)COCCOCCNC(=O)COCCOCCNC(=O)NC(=O)CC[C@H](NC(=O)CCCCCCCCCCCCCCCCC(=O)O)C(=O)O)cc2)C(=O)N[C@@H](Cc2ccc3ccccc3c2)C(=O)NC2(C(=O)N[C@@H](CCC(=O)O)C(=O)N[C@@H](CC(N)=O)C(=O)N[C@@H](Cc3cccnc3)C(=O)N(C)CC(N)=O)CCOCC2)NC1=O [compound 11, succiniccarn-r-Pen(3)-N-T-7MeW-K(Ac)-Pen(3)-AEF(PEG2PEG2gEC18OH)-2Nal-THP-E-N-3Pya-Sar-CONH2] ({X2-Suc}-[dR][Pen]NT[Trp(7-Me)]K(Ac)[Pen][AEF]([AEEA-AEEA-X5])[2Nal][Thp]EN[3Pal][Sar]-NH2; disulfide 2-7) | 50 to 500 nM | 0.5 to 5 nM
CC(=O)NCCCC[C@@H]1NC(=O)[C@H](Cc2c[nH]c3c(C)cccc23)NC(=O)[C@H]([C@@H](C)O)NC(=O)[C@H](CC(N)=O)NC(=O)[C@@H](NC(=O)[C@@H](CCCNC(=N)N)NC(=O)COCCOCCNC(=O)COCCOCCNC(=O)CC[C@H](NC(=O)CCCCCCCCCCCCCCCCC(=O)O)C(=O)O)C(C)(C)SSC(C)(C)[C@@H](C(=O)N[C@@H](Cc2ccc(OCCN)cc2)C(=O)N[C@@H](Cc2ccc3ccccc3c2)C(=O)NC2(C(=O)N[C@@H](CCC(=O)O)C(=O)N[C@@H](CC(N)=O)C(=O)N[C@@H](Cc3cccnc3)C(=O)N(C)CC(=O)NCCOCCOCC[N+](C)(C)C)CCOCC2)NC1=O [compound 67, HOC18gEPEG2PEG2CO-r-Pen(3)-N-T-7MeW-K(Ac)-Pen(3)-AEF-2Nal-THP-E-N-3Pya-Sar-CONH(PEG3a)] ({C18 diacid-γGlu-AEEA-AEEA}-[dR][Pen]NT[Trp(7-Me)]K(Ac)[Pen][AEF][2Nal][Thp]EN[3Pal][Sar]-{NH(CH2CH2O)2CH2CH2NMe3+}; disulfide 2-7) | 50 to 500 nM | 0.5 to 5 nM
CC(=O)NCCCC[C@@H]1NC(=O)[C@H](CC2CNc3c(C)cccc32)NC(=O)[C@H]([C@@H](C)O)NC(=O)[C@H](CC(N)=O)NC(=O)[C@@H](NC(=O)CCOCCOCC[N+](C)(C)C)C(C)(C)SSC(C)(C)[C@@H](C(=O)N[C@@H](Cc2ccc(OCCN)cc2)C(=O)N[C@@H](Cc2ccc3ccccc3c2)C(=O)NC2(C(=O)N[C@@H](CCCCNC(=O)COCCOCCNC(=O)COCCOCCNC(=O)CC[C@H](NC(=O)CCCCCCCCCCCCCCCCC(=O)O)C(=O)O)C(=O)N[C@@H](CC(N)=O)C(=O)N[C@@H](Cc3cccnc3)C(=O)N(C)CC(N)=O)CCOCC2)NC1=O (stereo partly drawn) [compound 78, cPEG3aCO-Pen(3)-N-T-7MeW-K(Ac)-Pen(3)-AEF-2Nal-THP-K(PEG2PEG2gEC18OH)-N-3Pya-Sar-CONH2] | 50 to 500 nM | < 0.5 nM
CC(=O)NCCCC[C@@H]1NC(=O)[C@H](Cc2c[nH]c3c(C)cccc23)NC(=O)[C@H]([C@@H](C)O)NC(=O)[C@H](CC(N)=O)NC(=O)[C@@H](NC(=O)[C@@H](CCCNC(=N)N)NC(=O)CCC(=O)N[C@H](CC(=O)O)C[N+](C)(C)C)C(C)(C)SSC(C)(C)[C@@H](C(=O)N[C@@H](Cc2ccc(OCCN)cc2)C(=O)N[C@@H](Cc2ccc3ccccc3c2)C(=O)NC2(C(=O)N[C@@H](CCCCNC(=O)COCCOCCNC(=O)COCCOCCNC(=O)CC[C@H](NC(=O)CCCCCCCCCCCCCCCCC(=O)O)C(=O)O)C(=O)N[C@@H](CC(N)=O)C(=O)N[C@@H](Cc3ccccn3)C(=O)N(C)CC(N)=O)CCOCC2)NC1=O [compound 49, succiniccarn-r-Pen(3)-N-T-7MeW-K(Ac)-Pen(3)-AEF-2Nal-THP-K(PEG2PEG2gEC18OH)-N-3Pya-Sar-CONH2] ({X2-Suc}-[dR][Pen]NT[Trp(7-Me)]K(Ac)[Pen][AEF][2Nal][Thp]K([AEEA-AEEA-γGlu-C18 diacid])N[2Pal][Sar]-NH2; disulfide 2-7) | 50 to 500 nM | < 0.5 nM
CC(=O)NCCCC[C@@H]1NC(=O)[C@H](Cc2c[nH]c3c(C)cccc23)NC(=O)[C@H]([C@@H](C)O)NC(=O)[C@H](CC(N)=O)NC(=O)[C@@H](NC(=O)[C@@H](CCCNC(=N)N)NC(=O)CCC(=O)N[C@H](CC(=O)O)C[N+](C)(C)C)C(C)(C)SSC(C)(C)[C@@H](C(=O)N[C@@H](Cc2ccc(OCCN)cc2)C(=O)N[C@@H](Cc2ccc3ccccc3c2)C(=O)NC2(C(=O)N[C@@H](CCC(=O)O)C(=O)N[C@@H](CC(N)=O)C(=O)N[C@@H](Cc3cccnc3)C(=O)N(C)CC(=O)N[C@@H](CCCCNC(=O)COCCOCCNC(=O)COCCOCCNC(=O)CC[C@H](NC(=O)CCCCCCCCCCCCCCCCC(=O)O)C(=O)O)C(N)=O)CCOCC2)NC1=O [compound 54, succiniccarn-r-Pen(3)-N-T-7MeW-K(Ac)-Pen(3)-AEF-2Nal-THP-E-N-3Pya-Sar-K(PEG2PEG2gEC18OH)-CONH2] ({X2-Suc}-[dR][Pen]NT[Trp(7-Me)]K(Ac)[Pen][AEF][2Nal][Thp]EN[3Pal][Sar]K([AEEA-AEEA-γGlu-C18 diacid])-NH2; disulfide 2-7) | 50 to 500 nM | < 0.5 nM

Further lines, with some results ahead:

IC50 (IL-23R) | SMILES | IC50 [1]
< 50 nM | CC(=O)N[C@H](CCCNC(=N)N)C(=O)N[C@@H]1C(=O)N[C@@H](CCCCNC(=O)COCCOCCNC(=O)COCCOCCNC(=O)CC[C@H](NC(=O)CCCCCCCCCCCCCCCCC(=O)O)C(=O)O)C(=O)N[C@@H]([C@@H](C)O)C(=O)N[C@@H](Cc2c[nH]c3c(C)cccc23)C(=O)N[C@@H](CCCCN(C)C(=O)CCOCCOCC[N+](C)(C)C)C(=O)N[C@H](C(=O)N[C@@H](Cc2ccc(OCCN)cc2)C(=O)N[C@@H](Cc2ccc3ccccc3c2)C(=O)NC2(C(=O)N[C@@H](CCC(=O)O)C(=O)N[C@@H](CC(N)=O)C(=O)N[C@@H](Cc3cccnc3)C(=O)N(C)CC(N)=O)CCOCC2)C(C)(C)SSC1(C)C [compound 76, MeCO-r-Pen(3)-K(PEG2PEG2gEC18OH)-T-7MeW-K(NMecPEG3a)-Pen(3)-AEF-2Nal-THP-E-N-3Pya-Sar-CONH2] (Ac-[dR][Pen]K([AEEA-AEEA-γGlu-C18 diacid])T[Trp(7-Me)][Lys(Me)](Me3N+(CH2)2O(CH2)2O(CH2)2CO)[Pen][AEF][2Nal][Thp]EN[3Pal][Sar]-NH2; disulfide 2-7) | < 0.5 nM
< 50 nM | CC(=O)N(C)CCCC[C@@H]1NC(=O)[C@H](Cc2c[nH]c3c(C)cccc23)NC(=O)[C@H]([C@@H](C)O)NC(=O)[C@H](CCCCNC(=O)CCCCCOCCOCCOCCOCCOCCOCCOCCOCCOCCOCCOCCNC(=O)CC[C@H](NC(=O)CCCCCCCCCCCCCCCCC(=O)O)C(=O)O)NC(=O)[C@@H](NC(=O)CCOCCOCC[N+](C)(C)C)C(C)(C)SSC(C)(C)[C@@H](C(=O)N[C@@H](Cc2ccc(OCCCCC[N+](C)(C)C)cc2)C(=O)N[C@@H](Cc2ccc3ccccc3c2)C(=O)NC2(C(=O)N[C@@H](CCCCN(C)C(C)=O)C(=O)N[C@@H](CC(N)=O)C(=O)N[C@@H](Cc3cccnc3)C(=O)N(C)CC(=O)N(C)C)CCOCC2)NC1=O [compound 116, HOC18gEPEG12CO-Pen(3)-N-T-K(Ac)-Pen(3)-AEF-2Nal-THP-E-N-3Pya-Sar-CONH2] ({Me3N+(CH2)2O(CH2)2O(CH2)2CO}-[Pen]K(X9)T[Trp(7-Me)][Lys(Me)](Ac)[Pen]Y(X1)[2Nal][Thp][Lys(Me)](Ac)N[3Pal][Sar]-NMe2; disulfide 1-6) | < 0.5 nM
< 50 nM | CC(=O)NCCCC[C@@H]1NC(=O)[C@H](Cc2c[nH]c3c(C)cccc23)NC(=O)[C@H]([C@@H](C)O)NC(=O)[C@H](CCCCNC(=O)COCCOCCNC(=O)COCCOCCNC(=O)CC[C@H](NC(=O)CCCCCCCCCCCCCCCCC(=O)O)C(=O)O)NC(=O)[C@@H](NC(=O)[C@@H](CCCNC(=N)N)NC(C)=O)C(C)(C)SSC(C)(C)[C@@H](C(=O)N[C@@H](Cc2ccc(OCCN)cc2)C(=O)N[C@@H](Cc2ccc3ccccc3c2)C(=O)NC2(C(=O)N[C@@H](CCCCNC(=O)CCC(=O)N[C@H](CC(=O)O)C[N+](C)(C)C)C(=O)N[C@@H](CC(N)=O)C(=O)N[C@@H](Cc3cccnc3)C(=O)N(C)CC(N)=O)CCOCC2)NC1=O [compound 12, MeCO-r-Pen(3)-K(PEG2PEG2gEC18OH)-T-7MeW-K(Ac)-Pen(3)-AEF-2Nal-THP-K(d)-N-3Pya-Sar-CONH2] (Ac-[dR][Pen]K([AEEA-AEEA-γGlu-C18 diacid])T[Trp(7-Me)]K(Ac)[Pen][AEF][2Nal][Thp]K([Suc-X2])N[3Pal][Sar]-NH2; disulfide 2-7) | 0.5 to 5 nM
